This assay has as its system A549 xenografts. Nature of the assay: A549 xenograft study. The assay is classed as in vivo, mice. Particulars: P8-A1 q4dx4 i.v. 0.4 mg/kg; Lipo4*-P8-A1 q4dx11 i.v. 0.4 mg/kg; cisplatin q4dx11 i.p. 4.0 mg/kg; n=8. Here is the method: FIGS. 10A, 10B, 10C and 10D illustrate evaluation of P8-A1 and its liposomal formulation, Lipo4-P8-A1, in a A549 xenograft model in mice. FIGS. 10 A-B illustrate tumor volumes and mouse weights monitored for Lipo4-P8-A1 and control, administered q4dx4, i.v. @ 0.4 mg/kg, n=10. Tumor growth inhibition is 65% on day 41, P<0.05. Mouse weight loss is 22% on day 41, potentially reversible. No other toxicity symptoms noted. FIGS. 10 C-D illustrate tumor volumes and mouse weights monitored for P8-A1 (q4dx4, i.v. @ 0.4 mg/kg), Lipo4*-P8-A1, (q4dx11, i.v. @ 0.4 mg/kg), cisplatin (q4dx11, i.p. @ 4.0 mg/kg), and control (q4dx11, i.v.). A total of 8 mice per group were treated (n=8). See text for discussion. […]
A549 Xenograft study. […] Animal weights and tumor volumes were measured and recorded throughout the entire study after the first dose was administered. Tumor volumes were determined using the formula: V (mm^3)=d^2×D/2, where d and D are the shortest and longest dimension of the tumor, respectively, and are reported as the sum of both tumors for each test animal. […] The concentration of Pt in selected tissues was determined by quadrupole inductively-coupled mass spectrometry (ICP-MS) on a Thermo ICP-MS instrument at the Analytic Chemistry Service facility of Research Triangle Institute, Research Triangle Park, N.C. […]

As for `N.N.[Cl][Pt][Cl]` [Cisplatin, cisplatin], the “antitumor efficacy, growth inhibition (Study B)” value was “does not show efficacy”.

Source of the values: US10925831B2, “Liposomal formulations of platinum-acridine anticancer agents and methods thereof” (Wake Forest University, priority 2017, dated 2021).
